pIC50: −log10 of the molar value.
assay: Inhibition of CCL3 induced chemotaxis in human T lymphocytes

Row | pIC50 | Structure (SMILES)
1 | 8.10 | O=C(N[C@@H](Cc1ccccc1)[C@@H](O)CC(C(=O)NO)C1CCC(F)(F)CC1)c1cnc2ccccc2n1 (stereo partly drawn) [Quinoxaline-2-carboxylic acid [(1S,2S)-1-benzyl-4-(4,4-difluoro-cyclohexyl)-2-hydroxy-4-hydroxycarbamoyl-butyl]-amide]
2 | 9.00 | CC(C)(F)CCC(C[C@H](O)[C@H](Cc1ccccc1)NC(=O)c1cnc2ccccc2n1)C(=O)NN (stereo partly drawn) [Quinoxaline-2-carboxylic acid ((1S,2S)-1-benzyl-7-fluoro-4-hydrazinocarbonyl-2-hydroxy-7-methyl-octyl)-amide]
3 | 8.30 | NC(=O)C(C[C@H](O)[C@H](Cc1ccccc1)NC(=O)c1cnc2ccccc2n1)C1CCCCC1 (stereo partly drawn) [Quinoxaline-2-carboxylic acid ((1S,2S)-1-benzyl-4-carbamoyl-4-cyclohexyl-2-hydroxy-butyl)-amide]
4 | 6.13 | CC(C)(F)CCC(C[C@H](O)[C@H](Cc1ccccc1)NC(=O)c1cnc2ccccc2n1)C(=O)N1CCCC1 (stereo partly drawn) [Quinoxaline-2-carboxylic acid [(1S,2S)-1-benzyl-7-fluoro-2-hydroxy-7-methyl-4-(pyrrolidine-1-carbonyl)-octyl]-amide]
5 | 8.70 | CC(C)CC[C@H](C[C@H](O)[C@H](Cc1ccccc1)NC(=O)c1cnc2ccccc2n1)C(N)=O [Quinoxaline-2-carboxylic acid ((1S,2S,4R)-1-benzyl-4-carbamoyl-2-hydroxy-7-methyl-octyl)-amide]
6 | 5.93 | CC(C)(O)CC[C@H](C[C@H](O)[C@H](Cc1ccccc1)NC(=O)c1cnc2ccccc2n1)C(N)=O [Quinoxaline-2-carboxylic acid ((1S,2S,4R)-1-benzyl-4-carbamoyl-2,7-dihydroxy-7-methyl-octyl)-amide]
7 | 6.66 | NC(=O)C(C[C@H](O)[C@H](Cc1ccccc1)NC(=O)c1cnc2ccccc2n1)C1CCC(F)(F)CC1 (stereo partly drawn) [Quinoxaline-2-carboxylic acid [(1S,2S)-1-benzyl-4-carbamoyl-4-(4,4-difluoro-cyclohexyl)-2-hydroxy-butyl]-amide]
8 | 6.36 | CC(C)(F)CCC(C[C@H](O)[C@H](Cc1ccccc1)NC(=O)c1cnc2ccccc2n1)C(=O)NCc1ccccc1 (stereo partly drawn) [Quinoxaline-2-carboxylic acid ((1S,2S)-1-benzyl-4-benzylcarbamoyl-7-fluoro-2-hydroxy-7-methyl-octyl)-amide]
9 | 6.08 | CNC(=O)[C@H](CC(C)C)C[C@H](O)[C@H](CC1CCCCC1)NC(=O)c1cnc2ccccc2c1 [Quinoline-3-carboxylic acid ((1S,2S,7R)-1-cyclohexylmethyl-2-hydroxy-6-methyl-4-methylcarbamoyl-heptyl)-amide]
10 | 5.15 | CN1CCN(C(=O)C(CCC(C)(C)F)C[C@H](O)[C@H](Cc2ccccc2)NC(=O)c2cnc3ccccc3n2)CC1 (stereo partly drawn) [Quinoxaline-2-carboxylic acid [(1S,2S)-1-benzyl-7-fluoro-2-hydroxy-7-methyl-4-(4-methyl-piperazine-1-carbonyl)-octyl]-amide]
11 | 4.90 | NC(=O)C(C[C@H](O)[C@H](Cc1ccccc1)NC(=O)c1cnc2ccccc2n1)C1CCOCC1 (stereo partly drawn) [Quinoxaline-2-carboxylic acid [(1S,2S)-1-benzyl-4-carbamoyl-2-hydroxy-4-(tetrahydro-pyran-4-yl)-butyl]-amide]
12 | 6.92 | NC(=O)C(C[C@H](O)[C@H](Cc1ccccc1)NC(=O)c1cnc2ccccc2n1)C1(O)CCCCC1 (stereo partly drawn) [Quinoxaline-2-carboxylic acid [(1S,2S)-1-benzyl-4-carbamoyl-2-hydroxy-4-(1-hydroxy-cyclohexyl)-butyl]-amide]
13 | 6.89 | CCNC(=O)C(CCC(C)(C)F)C[C@H](O)[C@H](Cc1ccccc1)NC(=O)c1cnc2ccccc2n1 (stereo partly drawn) [Quinoxaline-2-carboxylic acid ((1S,2S)-1-benzyl-4-ethylcarbamoyl-7-fluoro-2-hydroxy-7-methyl-octyl)-amide]
14 | 7.17 | NC(=O)C(C[C@H](O)[C@H](Cc1ccccc1)NC(=O)c1cnc2ccccc2n1)C1(O)CCC(F)(F)CC1 (stereo partly drawn) [Quinoxaline-2-carboxylic acid [(1S,2S)-1-benzyl-4-carbamoyl-4-(4,4-difluoro-1-hydroxy-cyclohexyl)-2-hydroxy-butyl]-amide]
15 | 7.51 | CC(C)(F)CCC(C[C@H](O)[C@H](Cc1ccccc1)NC(=O)c1cnc2ccccc2n1)C(=O)NO (stereo partly drawn) [Quinoxaline-2-carboxylic acid ((1S,2S)-1-benzyl-7-fluoro-2-hydroxy-4-hydroxycarbamoyl-7-methyl-octyl)-amide]
16 | 7.89 | CC(C)(F)CC[C@H](C[C@H](O)[C@H](Cc1ccccc1)NC(=O)c1cnc2ccccc2n1)C(N)=O [Quinoxaline-2-carboxylic acid ((1S,2S,4R)-1-benzyl-4-carbamoyl-7-fluoro-2-hydroxy-7-methyl-octyl)-amide]
17 | 6.17 | CC(C)(O)CCC(C[C@H](O)[C@H](Cc1ccccc1F)NC(=O)c1cnc2ccccc2n1)C(N)=O (stereo partly drawn) [Quinoxaline-2-carboxylic acid [(1S,2S)-4-carbamoyl-1-(2-fluoro-benzyl)-2,7-dihydroxy-7-methyl-octyl]-amide]
